Results as given in patent publication US7678913B2, “Ureas as factor Xa inhibitors” (Portola Pharmaceuticals, Inc., priority 2004, dated 2010).

Each compound was assayed against T1, human plasma protein factor Xa (Homo sapiens, UniProt P00742) (assay: Factor Xa IC50 determination (cleavage of chromogenic substrate S-2765)). Conditions: fXa 1 nM, S-2765 100 μM, Tris buffered saline pH 7.4, room temperature.
T1 construct: measure proteolytic activity of the enzyme (factor Xa); purchased Haematologic Technologies (Essex Junction, Vt.); host or cells: human plasma
T1 sequence (P00742 235-488 limits assumed): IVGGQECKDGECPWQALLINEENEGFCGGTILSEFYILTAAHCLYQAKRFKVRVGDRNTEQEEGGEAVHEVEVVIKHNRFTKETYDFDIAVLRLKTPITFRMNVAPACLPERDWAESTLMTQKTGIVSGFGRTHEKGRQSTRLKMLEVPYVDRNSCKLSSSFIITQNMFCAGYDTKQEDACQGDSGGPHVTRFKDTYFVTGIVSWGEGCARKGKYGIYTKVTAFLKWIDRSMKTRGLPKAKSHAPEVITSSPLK
T1 sequence (P00742 41-179 partner limits assumed): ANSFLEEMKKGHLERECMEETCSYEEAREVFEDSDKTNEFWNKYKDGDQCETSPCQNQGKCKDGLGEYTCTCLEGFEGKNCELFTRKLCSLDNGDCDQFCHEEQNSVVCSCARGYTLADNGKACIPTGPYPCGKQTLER
Format: biochemical
How it was run: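 Human plasma factor Xa (1 nM) preincubated 5 min at room temperature with inhibitor (0.01 nM–10 μM final) in Tris-buffered saline pH 7.4 with CaCl2, BSA and 5% DMSO. S-2765 added at 100 μM; pNA release at 405 nm over 2 min; initial velocities fitted to four-parameter equation for IC50, duplicates.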
In the case of `Cc1ccccc1C(NC(=O)Nc1ccc(Cl)cc1)C(=O)Nc1ccc(N(C)c2ccncc2)cc1` (centres unmarked) [Example 96, N-[4-(N-methyl-N-pyridin-4-yl-amino)phenyl]-2-(2-methylphenyl)-2-(4-chlorophenylaminocarbonylamino)-acetamide], the IC50 is reported as ≤ 100 nM.
In the case of `CNC(=N)c1ccc(NC(=O)C(NC(=O)Nc2ccc(Cl)cc2)c2ccccc2)c(F)c1` (centres unmarked) [Example 37, N-(4-methylaminoimino-2-fluorophenyl)-2-phenyl-2-(4-chlorophenylamino-carbonylamino)-acetamide], the IC50 is reported as ≤ 100 nM.
With `CN(C)NC(=N)c1ccc(NC(=O)C(NC(=O)Nc2ccc(Cl)cc2)c2ccccc2F)c(F)c1` (centres unmarked) [Example 48, N-[4-(2,2-dimethylhydrazinoimino)-2-fluorophenyl]-2-(2-fluorophenyl)-2-(4-chlorophenylaminocarbonylamino)-acetamide] the IC50 was 100 to 500 nM.
With `CN1CCN=C1c1ccc(NC(=O)C(CC(=O)N2CCCC2)NC(=O)Nc2ccc(Cl)cc2)cc1` (centres unmarked) [Example 66, N-[4-(1-methyl-4,5-dihydro-1H-imidazol-2-yl)phenyl]-2-(pyrrolidin-1-yl-carbonylmethyl)-2-(4-chlorophenylaminocarbonylamino)-acetamide] the IC50 was ≥ 500 nM.
`Cc1ccccc1C(NC(=O)Nc1ccc(Cl)cc1)C(=O)Nc1ccc(C(=N)N(C)C)cc1` (centres unmarked) [Example 86] was tested, and the IC50 was ≤ 100 nM.
For `COc1ccccc1C(NC(=O)Nc1ccc(Cl)cc1)C(=O)N1CCN(C2CCCN(C)CC2)CC1` (centres unmarked) [Example 153, 4-(1-methylhomopiperidin-4-yl)piperazin-1-yl-2-(2-methoxyphenyl)-2-(4-chlorophenylaminocarbonylamino)-acetamide], the IC50 was ≤ 100 nM.
For `CN1CCN=C1c1ccc(NC(=O)C(CC(C)(C)C)NC(=O)Nc2ccc(Cl)cc2)cc1` (centres unmarked) [Example 4, N-[4-(1-methyl-4,5-dihydro-1H-imidazol-2-yl)phenyl]-2-(2,2-dimethylpropyl)-2-(4-chlorophenylaminocarbonylamino)-acetamide], the IC50 was ≥ 500 nM.
In the case of `CN(C)C(=N)c1ccc(NC(=O)C(NC(=O)Nc2ccc(Cl)cc2)c2ccccc2Cl)cc1` (centres unmarked) [Example 100, N-[4-(dimethylaminoimino)phenyl]-2-(2-chlorophenyl)-2-(4-chlorophenylaminocarbonylamino)-acetamide], the IC50 is reported as ≤ 100 nM.
`CN1CCN=C1c1ccc(NC(=O)C(NC(=O)Nc2ccc(Cl)cc2)C(C)(C)C)cc1` (centres unmarked) [Example 3, N-[4-(1-methyl-4,5-dihydro-1H-imidazol-2-yl)phenyl]-2-(1,1-dimethylethyl)-2-(4-chlorophenylaminocarbonylamino)-acetamide] showed an IC50 of 100 to 500 nM.
For `CN1CCN=C1c1ccc(NC(=O)C(NC(=O)Nc2ccc(Cl)cc2)c2ccccc2Br)cc1` (centres unmarked) [Example 77, N-[4-(1-methyl-4,5-dihydro-1H-imidazol-2-yl)phenyl]-2-(2-bromophenyl)-2-(4-chlorophenylaminocarbonylamino)-acetamide], the IC50 was ≤ 100 nM.
In the case of `O=C(Nc1ccc(Cl)cc1)NC(C(=O)Nc1ccc(-c2cccc[n+]2[O-])cc1)c1ccccc1Oc1ccccc1` (centres unmarked) [Example 125, N-[4-(N-oxo-pyridin-2-yl)phenyl]-2-(2-phenoxyphenyl)-2-(4-chlorophenylaminocarbonylamino)-acetamide], the IC50 is reported as ≤ 100 nM.
In the case of `N=C(c1ccc(NC(=O)C(NC(=O)Nc2ccc(Cl)cc2)c2cccs2)cc1)N1CCCCC1` (centres unmarked) [Example 22], the IC50 is reported as ≤ 100 nM.
For `CNC(=O)CC(NC(=O)Nc1ccc(Cl)cc1)C(=O)Nc1ccc(C2=NCCN2C)cc1` (centres unmarked) [Example 70, N-[4-(1-methyl-4,5-dihydro-1H-imidazol-2-yl)phenyl]-2-(methylamino-carbonylmethyl)-2-(4-chlorophenylaminocarbonylamino)-acetamide], the IC50 was 100 to 500 nM.
`CN1CCN=C1c1ccc(NC(=O)C(NC(=O)Nc2ccc(Cl)cc2)c2cccc(Cl)c2)cc1` (centres unmarked) [Example 74, N-[4-(1-methyl-4,5-dihydro-1H-imidazol-2-yl)phenyl]-2-(3-chlorophenyl)-2-(4-chlorophenylaminocarbonylamino)-acetamide] was tested, and the IC50 was ≤ 100 nM.
